Measured values taken from article PMC11845477, “Exploring the principles behind antibiotics with limited resistance” (Nature Communications, 2025).

Experiments:
[1] = test system: K. pneumoniae ATCC 10031 (SEN) and K. pneumoniae ATCC 700603 (MDR); assay: Adaptive laboratory evolution (ALE), relative MIC of evolved lines; type: cell-based, Klebsiella pneumoniae
From the text: Using the same set of bacterial strains, we initiated adaptive laboratory evolution with the aim to maximize the level of antibiotic resistance in the populations achieved during a longer, but fixed time period.
An established protocol for adaptive laboratory evolution[46],[73] was followed to propagate populations with the highest resistance levels. Starting with an antibiotic concentration that caused approximately 50% growth inhibition, ten parallel populations for each antibiotic-ancestor strain combination were grown for 72 hours at 37 °C with continuous shaking (300 RPM). MHB broth medium was used unless stated otherwise. After each incubation, 20 µl of each culture was transferred to four new wells containing fresh medium with increasing antibiotic concentrations (0.5×, 1×, 1.5×, and 2.5× the previous concentration) in a chessboard layout to monitor potential cross-contamination. Growth was monitored by measuring OD600 using a Biotek Synergy 2 microplate reader, and only populations grown in the highest drug concentration with an OD600 > 0.2 were transferred further.
A robotic liquid handling system was used to automatically prepare a 11 to 16-step serial dilution in 384-well microtiter plates (Greiner). A final concentration of 5 × 10^5 bacterial cells per mL were inoculated into each well containing 60 µL MHB medium. Bacterial cultures were incubated at 37 °C with continuous shaking (Infors shaker, 900 rpm with 3 mm throw) for 18 hours (2 replicates from each). Cell growth was monitored by measuring the optical density (OD600 values, using Biotek Synergy microplate reader). MIC was defined as the antibiotic concentration of complete growth inhibition (i.e., OD600 < 0.05). Relative MIC was calculated as follows:1 relativeMIC=MICevolved/MICancestor […]
Supplementary Figure 4. Resistance levels following adaptive laboratory evolution across bacterial strains. The level of resistance was measured as the fold change in relative MIC between evolved and ancestral strains after ~60 days of adaptive laboratory evolution. Data are grouped by bacterial strain (A. baumannii (AB), E. coli (EC), K. pneumoniae (KP), and P. aeruginosa (PA)) and categorized as either multidrug-resistant (MDR) or sensitive (SEN). Each data point represents a laboratory evolved line, and boxplots show the median, first and third quartiles, with whiskers indicating the 5th and 95th percentiles.
Statistical analysis was performed using two-sided Dunn’s post-hoc test with Benjamini-Hochberg correction for multiple comparisons (****/ ***/ **/ * indicates p < 0.0001/ 0.001/ 0.01/ 0.05). For detailed information on antibiotic and bacterial species, see Supplementary Table 1. For mode of action groups, refer to Table 1. Source data are provided as a Source Data file.

[2] = test system: P. aeruginosa ATCC BAA-3107 (SEN) and P. aeruginosa LESB58 (MDR); assay: microbe, parasite or virus in culture; type: cell-based, Pseudomonas aeruginosa; conditions: for MIC: Pseudomonas aeruginosa, across three biological replicates
Method: (§1) This study focused on multiple bacterial strains, as follows. For the FoR and ALE experiments, 2 strains per species were chosen: E. coli ATCC 25922, K. pneumoniae ATCC 10031, A. baumannii ATCC 17978, and P. aeruginosa ATCC BAA-3107 as sensitive (SEN) strains, and E. coli NCTC13846, K. pneumoniae ATCC 700603, A. baumannii ATCC BAA-1605 and P. aeruginosa LESB58 as multi-drug resistant (MDR) strains. Functional metagenomic screens were performed with E. coli ATCC 25922 and K. pneumoniae ATCC 10031 strains. To determine the dose-kill properties of the different antibiotics, an E. coli strain (ATCC 25922) expressing a yellow fluorescent protein (pZS2R, YFP, CHL^R) and a red fluorescent protein (pZS2R, mCherry, CHL^R) was used.
(§2) Unless otherwise indicated, cation-adjusted Mueller-Hinton Broth 2 (MHB, Millipore) medium was used throughout the study, except for SCH79797 (SCH).
(§3) A robotic liquid handling system was used to automatically prepare a 11 to 16-step serial dilution in 384-well microtiter plates (Greiner). A final concentration of 5 × 10^5 bacterial cells per mL were inoculated into each well containing 60 µL MHB medium. Bacterial cultures were incubated at 37 °C with continuous shaking (Infors shaker, 900 rpm with 3 mm throw) for 18 hours (2 replicates from each). Cell growth was monitored by measuring the optical density (OD600 values, using Biotek Synergy microplate reader). MIC was defined as the antibiotic concentration of complete growth inhibition (i.e., OD600 < 0.05). Relative MIC was calculated as follows:1 relativeMIC=MICevolved/MICancestor

[3] = test system: A. baumannii ATCC 17978 (SEN) and A. baumannii ATCC BAA-1605 (MDR); assay: microbe, parasite or virus in culture; type: cell-based, Acinetobacter baumannii; conditions: for MIC: Acinetobacter baumannii, across three biological replicates
Method: as §1, §2, §3

[4] = ATCCBAA3107, Pseudomonas aeruginosa ATCC BAA-3107 (PA-SEN)
[5] = ATCCBAA3107, Pseudomonas aeruginosa LESB 58 (PA-MDR)
[6] = Acinetobacter baumannii ATCC 17978 (AB-SEN), ancestor strain, sheet fig 2a
[7] = Acinetobacter baumannii ATCC 17978 (AB-SEN)
[8] = Acinetobacter baumannii ATCC BAA-1605 (AB-MDR)
[9] = P. aeruginosa ATCC BAA 3107 (PA-SEN), ancestor strain, sheet fig 2a

CN[C@@H]1[C@@H](O[C@H]2O[C@H](CO)[C@@H](N)[C@H](O)[C@H]2O)OC2C[C@@H](N)[C@@H](O[C@H]3[C@H](O)[C@@H](O)[C@H](N)C[C@@H]3N)OC2[C@@H]1O (some centres unmarked) [Apramycin]
Relative MIC ([1]; KP-MDR (ATCC 700603), evolved line 1, MIC of evolved line / MIC of ancestor): 8
Relative MIC ([1]; KP-MDR (ATCC 700603), evolved line 2, MIC of evolved line / MIC of ancestor): 16
Relative MIC ([1]; KP-MDR (ATCC 700603), evolved line 3, MIC of evolved line / MIC of ancestor): 16
Relative MIC ([1]; KP-MDR (ATCC 700603), evolved line 4, MIC of evolved line / MIC of ancestor): 4
Relative MIC ([1]; KP-MDR (ATCC 700603), evolved line 5, MIC of evolved line / MIC of ancestor): 16
Relative MIC ([1]; KP-MDR (ATCC 700603), evolved line 6, MIC of evolved line / MIC of ancestor): 8
Relative MIC ([1]; KP-MDR (ATCC 700603), evolved line 7, MIC of evolved line / MIC of ancestor): 4
Relative MIC ([1]; KP-MDR (ATCC 700603), evolved line 8, MIC of evolved line / MIC of ancestor): 8
Relative MIC ([1]; KP-MDR (ATCC 700603), evolved line 9, MIC of evolved line / MIC of ancestor): 16
Relative MIC ([1]; KP-MDR (ATCC 700603), evolved line 10, MIC of evolved line / MIC of ancestor): 8
Relative MIC (log10) ([1]; KP-MDR (Klebsiella pneumoniae ATCC 700603), evolved line 1 adapted to the named antibiotic): 0.9031
Relative MIC (log10) ([1]; KP-MDR (Klebsiella pneumoniae ATCC 700603), evolved line 2 adapted to the named antibiotic): 1.204
Relative MIC (log10) ([1]; KP-MDR (Klebsiella pneumoniae ATCC 700603), evolved line 3 adapted to the named antibiotic): 1.204
Relative MIC (log10) ([1]; KP-MDR (Klebsiella pneumoniae ATCC 700603), evolved line 8 adapted to the named antibiotic): 0.9031
Relative MIC (log10) ([1]; KP-MDR (Klebsiella pneumoniae ATCC 700603), evolved line 9 adapted to the named antibiotic): 1.204
Relative MIC ([1]; KP-SEN (ATCC 10031), evolved line 2, MIC of evolved line / MIC of ancestor): 64
Relative MIC ([1]; KP-SEN (ATCC 10031), evolved line 3, MIC of evolved line / MIC of ancestor): 32
Relative MIC ([1]; KP-SEN (ATCC 10031), evolved line 5, MIC of evolved line / MIC of ancestor): 64
Relative MIC ([1]; KP-SEN (ATCC 10031), evolved line 6, MIC of evolved line / MIC of ancestor): 64
Relative MIC ([1]; KP-SEN (ATCC 10031), evolved line 8, MIC of evolved line / MIC of ancestor): 64
Relative MIC ([1]; KP-SEN (ATCC 10031), evolved line 9, MIC of evolved line / MIC of ancestor): 64
Relative MIC ([1]; KP-SEN (ATCC 10031), evolved line 10, MIC of evolved line / MIC of ancestor): 128
Relative MIC (log10) ([1]; KP-SEN (Klebsiella pneumoniae ATCC 10031), evolved line 2 adapted to the named antibiotic): 1.806
Relative MIC (log10) ([1]; KP-SEN (Klebsiella pneumoniae ATCC 10031), evolved line 5 adapted to the named antibiotic): 1.806
Relative MIC (log10) ([1]; KP-SEN (Klebsiella pneumoniae ATCC 10031), evolved line 6 adapted to the named antibiotic): 1.806
Relative MIC (log10) ([1]; KP-SEN (Klebsiella pneumoniae ATCC 10031), evolved line 8 adapted to the named antibiotic): 1.806
Relative MIC (log10) ([1]; KP-SEN (Klebsiella pneumoniae ATCC 10031), evolved line 10 adapted to the named antibiotic): 2.107
Relative MIC ([1]; Klebsiella pneumoniae ATCC 10031 (KP-SEN), evolved line 2): 64
Relative MIC ([1]; Klebsiella pneumoniae ATCC 10031 (KP-SEN), evolved line 3): 32
Relative MIC ([1]; Klebsiella pneumoniae ATCC 10031 (KP-SEN), evolved line 5): 64
Relative MIC ([1]; Klebsiella pneumoniae ATCC 10031 (KP-SEN), evolved line 6): 64
Relative MIC ([1]; Klebsiella pneumoniae ATCC 10031 (KP-SEN), evolved line 8): 64
Relative MIC ([1]; Klebsiella pneumoniae ATCC 10031 (KP-SEN), evolved line 9): 64
Relative MIC ([1]; Klebsiella pneumoniae ATCC 10031 (KP-SEN), evolved line 10): 128
Relative MIC ([1]; Klebsiella pneumoniae ATCC 700603 (KP-MDR), evolved line 1): 8
Relative MIC ([1]; Klebsiella pneumoniae ATCC 700603 (KP-MDR), evolved line 2): 16
Relative MIC ([1]; Klebsiella pneumoniae ATCC 700603 (KP-MDR), evolved line 3): 16
Relative MIC ([1]; Klebsiella pneumoniae ATCC 700603 (KP-MDR), evolved line 4): 4
Relative MIC ([1]; Klebsiella pneumoniae ATCC 700603 (KP-MDR), evolved line 5): 16
Relative MIC ([1]; Klebsiella pneumoniae ATCC 700603 (KP-MDR), evolved line 6): 8
Relative MIC ([1]; Klebsiella pneumoniae ATCC 700603 (KP-MDR), evolved line 7): 4
Relative MIC ([1]; Klebsiella pneumoniae ATCC 700603 (KP-MDR), evolved line 8): 8
Relative MIC ([1]; Klebsiella pneumoniae ATCC 700603 (KP-MDR), evolved line 9): 16
Relative MIC ([1]; Klebsiella pneumoniae ATCC 700603 (KP-MDR), evolved line 10): 8
MIC [2, 4]: 8 µg/mL
MIC [2, 5]: > 32 µg/mL
MIC of ancestor ([3]; Acinetobacter baumannii ATCC 17978 (AB-SEN), ancestor strain): 4 µg/mL
MIC of ancestor [3, 6]: 4 µg/mL
MIC [3, 7]: 4 µg/mL
MIC [3, 8]: 8 µg/mL

C[C@@H](O)[C@H]1C(=O)N2C(C(=O)O)=C(S[C@@H]3CN[C@H](C(=O)N(C)C)C3)[C@H](C)[C@H]12 [Meropenem]
MIC of ancestor [2, 9]: 0.0312 µg/mL
MIC of ancestor ([2]; P. aeruginosa LESB 58 (PA-MDR), ancestor strain, sheet fig 2a): 2 µg/mL
MIC of ancestor ([2]; PA-MDR, Pseudomonas aeruginosa LESB 58, ancestor strain): 2 µg/mL
MIC of ancestor ([2]; PA-SEN, Pseudomonas aeruginosa ATCC BAA 3107, ancestor strain): 0.0312 µg/mL
MIC [2, 4]: 0.0312 µg/mL
MIC [2, 5]: 2 µg/mL
MIC of ancestor ([3]; AB-SEN, Acinetobacter baumannii ATCC 17978, ancestor strain): 1 µg/mL
MIC of ancestor [3, 6]: 1 µg/mL
MIC [3, 7]: 1 µg/mL
MIC [3, 8]: > 32 µg/mL

COc1c(N2C[C@@H]3CCCN[C@@H]3C2)c(F)cc2c(=O)c(C(=O)O)cn(C3CC3)c12 [Moxifloxacin]
MIC of ancestor [2, 9]: 1 µg/mL
MIC of ancestor ([2]; Pseudomonas aeruginosa ATCC BAA 3107 (PA-SEN), ancestor): 1 µg/mL
MIC [2, 4]: 1 µg/mL
MIC [2, 5]: 32 µg/mL
MIC [3, 8]: 32 µg/mL
